The source of these data is patent US20100286090A1, “Treatment of Multiple Myeloma” (BRISTOL-MYERS SQUIBB COMPANY, priority 2005, published 2010).

As usually defined, the IC50 is the concentration needed to halve the response being measured. Lower therefore signals greater potency in that assay.

In this assay the test system is MM cell lines. As to the kind of experiment: effect of dasatinib on cell viability of MM cell lines. It counts as cell-based. As to conditions: Homo sapiens; in 8/15 MM cell lines tested. The source says:
FIG. 1 illustrates results obtained on the effect of dasatinib at varying concentrations on the cell viability of certain MM cell lines.
Described herein are studies on the oral, multi-targeted kinase inhibitor dasatinib (BMS-354825, Bristol-Myers Squibb Co.) which inhibits BCR-ABL, SRC, c-KIT, PDGF-R, and ephrin (EPH) receptor kinases. Although BCR-ABL and c-KIT are not primary oncogenes driving MM proliferation and survival, dasatinib was studied because of (a) emerging data from our laboratory (CS Mitsiades, unpublished observations) on the expression patterns of EPH receptors in MM cell lines and primary tumor specimens; and (b) the roles of PDGF-R and SRC in tumor-microenvironment interactions, e.g., pericyte function in angiogenesis and osteoclast-mediated bone resorption, respectively.
Dasatinib is active against human MM cells which are resistant to conventional or other investigational treatments. […] For those cell lines highly responsive to dasatinib, their IC50 was in a range of concentrations which are deemed clinically achievable levels (based on data derived from the ongoing clinical trials of this compound in other disease setting).

The structures appear in SMILES notation. Where only a bound is given, the exact number is not on record here.

Regarding `Cc1nc(Nc2ncc(C(=O)Nc3c(C)cccc3Cl)s2)cc(N2CCN(CCO)CC2)n1` [dasatinib], the IC50 was less than 0.1 µM.
